Reference: patent publication US9681664B2, “Macrocyclic picolinamides as fungicides” (Dow Agrosciences LLC, priority 2012, dated 2017)
Read-outs that look alike come from different tables or passages of the source.

Columns and labels:
[1] = system: Mycosphaerella graminicola; Anamorph: Septoria tritici; test: Leaf blotch of wheat (SEPTTR) disease control on wheat seedlings; type: in vivo; settings: Zymoseptoria tritici; for pest or weed control at 121.5 g/ha: low volume application, 121.5 g/H
Protocol: Technical grades of materials were dissolved in acetone, which were then mixed with nine volumes of water containing 110 ppm Triton X-100. The fungicide solutions were applied onto wheat seedlings using an automated booth sprayer to run-off. All sprayed plants were allowed to air dry prior to further handling. All fungicides were evaluated using the aforementioned method for their activity vs. all target diseases. Wheat leaf blotch and brown rust activity were also evaluated using track spray applications, in which case the fungicides were formulated as EC formulations, containing 0.1% Trycol 5941 in the spray solutions. Wheat plants (variety Yuma) were grown from seed in a greenhouse in 50% mineral soil/50% soil-less Metro mix until the first leaf was fully emerged, with 7-10 seedlings per pot. These plants were inoculated with an aqueous spore suspension of Septoria tritici either prior to or after fungicide treatments. After inoculation the plants were kept in 100% relative humidity (one day in a dark dew chamber followed by two to three days in a lighted dew chamber at 20° C.) to permit spores to germinate and infect the leaf. The plants were then transferred to a greenhouse set at 20° C. for disease to develop. When disease symptoms were fully expressed on the 1st leaves of untreated plants, infection levels were assessed on a scale of 0 to 100 percent disease severity. Percent disease control was calculated using the ratio of disease severity on treated plants relative to untreated plants.

[2] = system: Puccinia triticina; Synonym: Puccinia recondite f. sp. tritici; test: Wheat brown rust (PUCCRT) disease control on wheat seedlings; type: in vivo; settings: Puccinia triticina; for pest or weed control at 121.5 g/ha: low volume application, 121.5 g/H
Protocol: Technical grades of materials were dissolved in acetone, which were then mixed with nine volumes of water containing 110 ppm Triton X-100. The fungicide solutions were applied onto wheat seedlings using an automated booth sprayer to run-off. All sprayed plants were allowed to air dry prior to further handling. All fungicides were evaluated using the aforementioned method for their activity vs. all target diseases. Wheat leaf blotch and brown rust activity were also evaluated using track spray applications, in which case the fungicides were formulated as EC formulations, containing 0.1% Trycol 5941 in the spray solutions. Wheat plants (variety Yuma) were grown from seed in a greenhouse in 50% mineral soil/50% soil-less Metro mix until the first leaf was fully emerged, with 7-10 seedlings per pot. These plants were inoculated with an aqueous spore suspension of Puccinia triticina either prior to or after fungicide treatments. After inoculation the plants were kept in a dark dew room at 22° C. with 100% relative humidity overnight to permit spores to germinate and infect the leaf. The plants were then transferred to a greenhouse set at 24° C. for disease to develop. Fungicide formulation, application and disease assessment followed the procedures as described in the Example A.

[3] = 24 h, Wheat Leaf Blotch, 1 Day Protectant, read-out: Disease Control SEPTTR 1 DP 121.5 g/H
[4] = 72 h, Wheat Leaf Blotch, 3 Day Curative, read-out: Disease Control SEPTTR 3 DC 121.5 g/H
[5] = 24 h, Wheat Brown Rust, 1 Day Protectant, read-out: Disease Control PUCCRT 1 DP 121.5 g/H
[6] = 72 h, Wheat Brown Rust, 3 Day Curative, read-out: Disease Control PUCCRT 3 DC 121.5 g/H
[7] = 24 h, High volume application, 1 Day Protectant, read-out: SEPTTR 1DP disease control
[8] = 72 h, High volume application, 3 Day Curative, read-out: SEPTTR 3DC disease control
[9] = 24 h, High volume application, 1 Day Protectant, read-out: PUCCRT 1DP disease control
[10] = 72 h, High volume application, 3 Day Curative, read-out: PUCCRT 3DC disease control
[11] = 24 h, Wheat Leaf Blotch, 1 Day Protectant, high volume application, read-out: Disease Control SEPTTR 1 DP 100 ppm
[12] = 72 h, Wheat Leaf Blotch, 3 Day Curative, high volume application, read-out: Disease Control SEPTTR 3 DC 100 ppm
[13] = 24 h, Wheat Brown Rust, 1 Day Protectant, high volume application, read-out: Disease Control PUCCRT 1 DP 100 ppm
[14] = 72 h, Wheat Brown Rust, 3 Day Curative, high volume application, read-out: Disease Control PUCCRT 3 DC 100 ppm

Structure (SMILES) | pest or weed control at 121.5 g/ha [1, 3] | pest or weed control at 121.5 g/ha [1, 4] | pest or weed control at 121.5 g/ha [2, 5] | pest or weed control at 121.5 g/ha [2, 6] | pest or weed control at 100 ppm [1, 7] | pest or weed control at 100 ppm [1, 8] | pest or weed control at 100 ppm [2, 9] | pest or weed control at 100 ppm [2, 10] | pest or weed control at 100 ppm [1, 11] | pest or weed control at 100 ppm [1, 12] | pest or weed control at 100 ppm [2, 13] | pest or weed control at 100 ppm [2, 14]
COCCC(=O)Oc1c(OC)ccnc1C(=O)N[C@H]1CCC[C@H](OCC(C)C)[C@@H](OC)[C@H](C)OC1=O [F259] | < 0% | 80 to 100% | 80 to 100% | 80 to 100% |  |  |  |  |  |  |  | 
COc1ccnc(C(=O)N[C@H]2CCC[C@H](OCCCC(F)(F)F)[C@@H](OCCCC(F)(F)F)[C@H](C)OC2=O)c1OCOC(=O)C(C)C [F100] |  |  |  |  | 80 to 100% | 80 to 100% | 80 to 100% | 80 to 100% |  |  |  | 
C=C(C)CO[C@H]1[C@H](C)OC(=O)[C@@H](NC(=O)c2nccc(OC)c2O)CCC[C@@H]1OCC(=C)C [F14, 3-hydroxy-4-methoxy-N-((3S,7S,8S,9S)-9-methyl-7,8-bis((2-methylallyl)oxy)-2-oxooxonan-3-yl)pyridine-2-carboxamide] |  |  |  |  | < 0% | 80 to 100% | 80 to 100% | 80 to 100% |  |  |  | 
C=C(C)c1ccc(O[C@H]2[C@H](C)OC(=O)[C@@H](NC(=O)c3nccc(OC)c3OC(C)=O)CCC[C@@H]2OCCC)cc1 [F289] | 80 to 100% | 80 to 100% | 80 to 100% | 80 to 100% |  |  |  |  | 80 to 100% | 80 to 100% | 80 to 100% | 80 to 100%
CCCO[C@H]1CCC[C@H](NC(=O)c2nccc(OC)c2OC(C)=O)C(=O)O[C@@H](C)[C@@H]1Oc1ccc(Br)cc1 [F285] | 80 to 100% | 80 to 100% | 80 to 100% | 80 to 100% |  |  |  |  | 80 to 100% | 80 to 100% | 80 to 100% | 0 to 80%
COc1ccnc(C(=O)N[C@H]2CCC[C@H](OC(=O)C3CCCC3)[C@@H](OC(=O)C3CCCC3)[C@H](C)OC2=O)c1O [F84] |  |  |  |  | 0 to 80% | 0 to 80% | 0 to 80% | 0 to 80% |  |  |  | 
COc1ccnc(C(=O)N[C@H]2CCC[C@H](OCC(C)C)[C@@H](Oc3ccccc3)[C@H](C)OC2=O)c1O [F25] |  |  |  |  | 80 to 100% | 80 to 100% | 80 to 100% | 80 to 100% |  |  |  | 
CCCO[C@H]1[C@H](C)OC(=O)[C@@H](NC(=O)c2nccc(OC)c2O)CCC[C@@H]1OCCC [F114] |  |  |  |  | 80 to 100% | 80 to 100% | 80 to 100% | 80 to 100% |  |  |  | 
CCCO[C@H]1CCC[C@H](NC(=O)c2nccc(OC)c2O)C(=O)O[C@@H](C)[C@@H]1Oc1cccc(Cl)c1 [F272] |  |  |  |  |  |  |  |  | 80 to 100% | 80 to 100% | 80 to 100% | 80 to 100%
COc1ccnc(C(=O)N[C@H]2CCC[C@H](Oc3ccccc3)[C@@H](OC)[C@H](C)OC2=O)c1OC(C)=O [F258] | 0 to 80% | 0 to 80% | 80 to 100% | 80 to 100% |  |  |  |  |  |  |  | 
CCCOC(=O)O[C@H]1CCC[C@H](NC(=O)c2nccc(OC)c2O)C(=O)O[C@@H](C)[C@@H]1Oc1cc(C)cc(C)c1 [F290] |  |  |  |  |  |  |  |  | 0 to 80% | 0 to 80% | 80 to 100% | 80 to 100%
CCCO[C@H]1CCC[C@H](NC(=O)c2nccc(OC)c2O)C(=O)O[C@@H](C)[C@@H]1OC1CCCC1 [F153] |  |  |  |  | 80 to 100% | 80 to 100% | 80 to 100% | 80 to 100% |  |  |  | 
COc1ccnc(C(=O)N[C@H]2CCC[C@H](OC(=O)C3CCCC3)[C@@H](OC3CCCC3)[C@H](C)OC2=O)c1O [F156] |  |  |  |  | 80 to 100% | 80 to 100% | 80 to 100% | 80 to 100% |  |  |  | 
CCCO[C@H]1[C@H](C)OC(=O)[C@@H](NC(=O)c2nccc(OC)c2O)CCC[C@@H]1Oc1cc(C)cc(C)c1 [F281] |  |  |  |  |  |  |  |  | 0 to 80% | 0 to 80% | 80 to 100% | 0 to 80%
CCCO[C@H]1CCC[C@H](NC(=O)c2nccc(OC)c2O)C(=O)O[C@@H](C)[C@@H]1Oc1ccc(-c2ccccc2)cc1 [F283] |  |  |  |  |  |  |  |  | 80 to 100% | 0 to 80% | 80 to 100% | 0 to 80%
CCCO[C@H]1[C@H](C)OC(=O)[C@@H](NC(=O)c2nccc(OC)c2OC(C)=O)CCC[C@@H]1Oc1cccc(F)c1 [F284] | 80 to 100% | 80 to 100% | 80 to 100% | 80 to 100% |  |  |  |  | 80 to 100% | 80 to 100% | 80 to 100% | 80 to 100%
COc1ccnc(C(=O)N[C@H]2CCC[C@H](OCC(C)C)[C@@H](OC(=O)C3CCCC3)[C@H](C)OC2=O)c1OCOC(=O)C(C)C [F218] |  |  |  |  | 80 to 100% | 0 to 80% | 80 to 100% | 80 to 100% |  |  |  | 
C=C(C)CO[C@H]1CCC[C@H](NC(=O)c2nccc(OC)c2O)C(=O)O[C@@H](C)[C@@H]1OC [F245] |  |  |  |  |  |  |  |  | 0 to 80% | 80 to 100% | 80 to 100% | 0 to 80%
COc1ccnc(C(=O)N[C@H]2CCC[C@H](OCC(C)C)[C@@H](OCCCC(F)(F)F)[C@H](C)OC2=O)c1OC(C)=O [F216] |  |  |  |  | 80 to 100% | 80 to 100% | 80 to 100% | 80 to 100% |  |  |  | 
COc1ccc(O[C@H]2[C@H](C)OC(=O)[C@@H](NC(=O)c3nccc(OC)c3OCOC(=O)C(C)C)CCC[C@@H]2Oc2ccc(OC)cc2)cc1 [F67] |  |  |  |  | 80 to 100% | 0 to 80% | 80 to 100% | 80 to 100% |  |  |  | 
CCCCCO[C@H]1[C@H](C)OC(=O)[C@@H](NC(=O)c2nccc(OC)c2OC(C)=O)CCC[C@@H]1Oc1ccccc1 [F103] |  |  |  |  | 80 to 100% | 80 to 100% | 80 to 100% | 80 to 100% |  |  |  | 
COc1ccnc(C(=O)N[C@H]2CCC[C@H](OCCCC(F)(F)F)[C@@H](OC3CCCC3)[C@H](C)OC2=O)c1O [F168] |  |  |  |  | 80 to 100% | 80 to 100% | 80 to 100% | 80 to 100% |  |  |  | 
CCCCCO[C@H]1[C@H](C)OC(=O)[C@@H](NC(=O)c2nccc(OC)c2OCOC(=O)C(C)C)CCC[C@@H]1Oc1ccccc1 [F98] |  |  |  |  | 80 to 100% | 80 to 100% | 80 to 100% | 80 to 100% |  |  |  | 
COc1ccnc(C(=O)N[C@H]2CCC[C@H](OCC(C)C)[C@@H](OC)[C@H](C)OC2=O)c1OC(C)=O [F257] | 80 to 100% | 80 to 100% | 80 to 100% | 80 to 100% |  |  |  |  |  |  |  | 
COc1ccnc(C(=O)N[C@H]2CCC[C@H](OC3CCCC3)[C@@H](OC(=O)C3CCCC3)[C@H](C)OC2=O)c1OCOC(C)=O [F148] |  |  |  |  | 80 to 100% | 80 to 100% | 80 to 100% | 80 to 100% |  |  |  | 
